Measurements: ChEMBL document CHEMBL1201862, “PubChem BioAssay data set” (2004)
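Each compound was tested at five concentrations against cells in 96-well plates for 48 hours. The concentration for 50% growth inhibition is given as GI50.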 Activity calls are given as the source filed them. Cut-off read from the data, not from the text of the source: active = GI50 up to about 1.1 µM and inactive = higher.

Columns and labels:
Test in all cases: NCI anticancer screen, dose series, 48 h
[1] = test system: A498
[2] = test system: A549
[3] = test system: ACHN
[4] = test system: CAKI-1
[5] = test system: CCRF-CEM
[6] = test system: COLO 205
[7] = test system: DLD-1
[8] = test system: DMS-114
[9] = test system: DMS-273
[10] = test system: EKVX
[11] = test system: HCC 2998
[12] = test system: HCT-116
[13] = test system: HCT-15
[14] = test system: HL-60
[15] = test system: HOP-18
[16] = test system: HOP-92
[17] = test system: HT-29
[18] = test system: IGROV-1
[19] = test system: K562
[20] = test system: KM-20L2
[21] = test system: KM12
[22] = test system: LOX IMVI
[23] = test system: LXFL 529
[24] = test system: M14
[25] = test system: MOLT-4
[26] = test system: Malme-3M
[27] = test system: NCI-H226
[28] = test system: NCI-H23
[29] = test system: NCI-H460
[30] = test system: OVCAR-4
[31] = test system: OVCAR-5
[32] = test system: OVCAR-8
[33] = test system: RPMI-8226
[34] = test system: RXF 393
[35] = test system: RXF 631
[36] = test system: SF-268
[37] = test system: SF-295
[38] = test system: SF-539
[39] = test system: SK-MEL-28
[40] = test system: SK-MEL-2
[41] = test system: SK-MEL-5
[42] = test system: SN12C
[43] = test system: SNB-19
[44] = test system: SNB-75
[45] = test system: SNB-78
[46] = test system: SR
[47] = test system: SW-620
[48] = test system: TK-10
[49] = test system: U-251
[50] = test system: UACC-257
[51] = test system: UO-31
[52] = test system: XF498
[53] = test system: 786-0
[54] = test system: HOP-62
[55] = test system: M19-MEL
[56] = test system: NCI-H522
[57] = test system: SK-OV-3
[58] = test system: UACC-62

Compound: COc1ccc(-c2cc(N3CCN(c4ccccc4)CC3)c(C#N)c(=O)o2)cc1
- GI50 [1]: 26.9 µM (inactive)
- GI50 [2]: 21.2 µM (inactive)
- GI50 [3]: 28.6 µM (inactive)
- GI50 [4]: 16.7 µM (inactive)
- GI50 [5]: 98.4 µM (inactive)
- GI50 [6]: > 100 µM (inactive)
- GI50 [7]: 57 µM (inactive)
- GI50 [8]: 22.1 µM (inactive)
- GI50 [9]: 40 µM (inactive)
- GI50 [10]: 23.8 µM (inactive)
- GI50 [11]: 65.6 µM (inactive)
- GI50 [12]: 62.8 µM (inactive)
- GI50 [13]: 65.2 µM
- GI50 [14]: 60.7 µM (inactive)
- GI50 [15]: 4.88 µM (inactive)
- GI50 [16]: 55 µM (inactive)
- GI50 [17]: > 100 µM (inactive)
- GI50 [18]: 24.8 µM (inactive)
- GI50 [19]: 61 µM (inactive)
- GI50 [20]: > 100 µM (inactive)
- GI50 [21]: > 100 µM (inactive)
- GI50 [22]: 30.5 µM (inactive)
- GI50 [23]: 27.3 µM (inactive)
- GI50 [24]: > 100 µM (inactive)
- GI50 [25]: > 100 µM (inactive)
- GI50 [26]: 19.4 µM (inactive)
- GI50 [27]: 7.74 µM (inactive)
- GI50 [28]: 47.6 µM (inactive)
- GI50 [29]: 26.5 µM (inactive)
- GI50 [30]: 4.59 µM (inactive)
- GI50 [31]: > 100 µM (inactive)
- GI50 [32]: 20.7 µM (inactive)
- GI50 [33]: 62.5 µM (inactive)
- GI50 [34]: 13.7 µM (inactive)
- GI50 [35]: 21.5 µM (inactive)
- GI50 [36]: 8.55 µM (inactive)
- GI50 [37]: 14.3 µM (inactive)
- GI50 [38]: 11.3 µM (inactive)
- GI50 [39]: 15.6 µM (inactive)
- GI50 [40]: 18.8 µM (inactive)
- GI50 [41]: 36.4 µM (inactive)
- GI50 [42]: 30.2 µM (inactive)
- GI50 [43]: 8.49 µM (inactive)
- GI50 [44]: 7.41 µM (inactive)
- GI50 [45]: 22.6 µM (inactive)
- GI50 [46]: > 100 µM (inactive)
- GI50 [47]: 42 µM (inactive)
- GI50 [48]: 22.4 µM (inactive)
- GI50 [49]: 37.6 µM (inactive)
- GI50 [50]: 50.1 µM (inactive)
- GI50 [51]: 13.2 µM (inactive)
- GI50 [52]: 6.59 µM (inactive)

Compound: CN(Cc1ccccc1)c1nc(=[N+](C)C)ss1
- GI50 [53]: > 100 µM (inactive)
- GI50 [1]: 99.5 µM (inactive)
- GI50 [2]: 33.2 µM (inactive)
- GI50 [3]: > 100 µM (inactive)
- GI50 [4]: > 100 µM (inactive)
- GI50 [5]: 3.55 µM (inactive)
- GI50 [7]: > 100 µM (inactive)
- GI50 [8]: 20.3 µM (inactive)
- GI50 [9]: 60.7 µM (inactive)
- GI50 [10]: > 100 µM (inactive)
- GI50 [11]: > 100 µM (inactive)
- GI50 [12]: 34.6 µM (inactive)
- GI50 [13]: > 100 µM
- GI50 [14]: 28.4 µM (inactive)
- GI50 [15]: > 100 µM (inactive)
- GI50 [54]: > 100 µM (inactive)
- GI50 [16]: > 100 µM (inactive)
- GI50 [17]: 74.8 µM (inactive)
- GI50 [18]: > 100 µM (inactive)
- GI50 [19]: 23.4 µM (inactive)
- GI50 [20]: > 100 µM (inactive)
- GI50 [21]: 9.42 µM (inactive)
- GI50 [22]: 36.8 µM (inactive)
- GI50 [23]: 71.6 µM (inactive)
- GI50 [24]: > 100 µM (inactive)
- GI50 [55]: 41.9 µM (inactive)
- GI50 [25]: 32.1 µM (inactive)
- GI50 [26]: > 100 µM (inactive)
- GI50 [27]: 8.95 µM (inactive)
- GI50 [28]: 31.8 µM (inactive)
- GI50 [29]: 16.9 µM (inactive)
- GI50 [56]: 41.1 µM (inactive)
- GI50 [30]: > 100 µM (inactive)
- GI50 [31]: > 100 µM (inactive)
- GI50 [32]: > 100 µM (inactive)
- GI50 [33]: 28.3 µM (inactive)
- GI50 [34]: > 100 µM (inactive)
- GI50 [35]: 67.5 µM (inactive)
- GI50 [36]: 49.1 µM (inactive)
- GI50 [37]: > 100 µM (inactive)
- GI50 [38]: 76.4 µM (inactive)
- GI50 [39]: > 100 µM (inactive)
- GI50 [40]: 25.9 µM (inactive)
- GI50 [41]: 58.6 µM (inactive)
- GI50 [57]: 96.8 µM (inactive)
- GI50 [42]: 65 µM (inactive)
- GI50 [43]: 86.5 µM (inactive)
- GI50 [44]: > 100 µM (inactive)
- GI50 [45]: > 100 µM (inactive)
- GI50 [46]: 44.2 µM (inactive)
- GI50 [47]: > 100 µM (inactive)
- GI50 [48]: 35.2 µM (inactive)
- GI50 [49]: 40.8 µM (inactive)
- GI50 [50]: 56.5 µM (inactive)
- GI50 [58]: 24.6 µM (inactive)
- GI50 [51]: > 100 µM (inactive)
- GI50 [52]: > 100 µM (inactive)
